US11415579B2, “Assay for measuring a rate of reaction between a target and a ligand candidate” (Imperial College Innovations Ltd., priority 2016, dated 2022)

Key:
[1] = molecular target: T1, human cyclin-dependent kinase 2 (Cdk2) (Homo sapiens, UniProt P24941); assay: Kinetic thiol consumption assay with wild type Cdk2 (C177); assay type: binding; design: key to Rate enhancement, Cdk2 WT: k(Cdk2) divided by k(model thiol); Rate constant with Cdk2 (k(Cdk2)): unit not given here; conditions: for Rate constant with Cdk2 (k(Cdk2)): 500 μM ligand, 5 μM thiol, phosphate buffer pH 8; for Rate enhancement, Cdk2 WT: no additional mutations; for Rate constant with Cdk2 WT: Protein: Cdk2, cysteine position WT, in h^-1; for k(Cdk2)/k(Cdk2_mut) rate enhancement: model thiol Cdk2[C177A, F80C, K278C]; for k(Cdk2)/k(GSH) rate enhancement: model thiol glutathione
T1 construct: poly-histidine; made in house; host or cells: E. coli
How it was run: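 His-tagged human Cdk2 from E. coli (sole surface cysteine C177) or a model thiol, each 5 μM in degassed phosphate buffer pH 8 with immobilized TCEP, reacted with acrylamides at room temperature. Fluorescence (ex 380/em 470) normalized to DMSO/thiol control over time; first-order rate constants, Cdk2 rate divided by model-thiol rate.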

[2] = molecular target: T2, Cdk2(R122C) (C177A) (Homo sapiens, UniProt P24941, C177A/R122C); assay: Kinetic thiol consumption assay with Cdk2 mutant R122C; assay type: binding; design: key to Rate enhancement, Cdk2 R122C: rate constant with Cdk2 ÷ rate constant with model thiol (fold); conditions: additional mutation C177A; for Rate constant with Cdk2 R122C: Protein: Cdk2, cysteine position R122C, in h-1
T2 construct: poly-histidine; made in house; host or cells: E. coli
How it was run: (§1)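 His-tagged single-surface-cysteine Cdk2 mutants (C177A background) from E. coli, 5 μM in degassed phosphate buffer pH 8, pre-treated with immobilized TCEP beads. Fluorescence (ex/em 380/470 nm) read after 1 h at room temperature, normalized to DMSO/thiol-only control; first-order decay fits gave rate constants, divided by model-thiol rate for rate enhancement.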

[3] = Kinetic thiol consumption assay with model thiol glutathione; assay type: physicochemical; design: Rate constant with glutathione (k(GSH)): unit not given here; conditions: for Rate constant with glutathione (k(GSH)): 500 μM ligand, 5 μM thiol, phosphate buffer pH 8; for Rate constant with Glutathione: Protein: Glutathione, cysteine position NA, in h-1
How it was run: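 Rate constants for acrylamide reaction with 5 μM glutathione come from first-order exponential fits of normalized fluorescence decay (ex 380, em 470 nm). Reactions run in degassed phosphate buffer at pH 8 containing TCEP beads, room temperature.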

[4] = molecular target: T3, Cdk2(S276C) (C177A) (Homo sapiens, UniProt P24941, C177A/S276C); assay: Kinetic thiol consumption assay with Cdk2 mutant S276C; assay type: binding; design: key to Rate enhancement, Cdk2 S276C: rate constant with Cdk2 ÷ rate constant with model thiol (fold); conditions: additional mutation C177A; for Rate constant with Cdk2 S276C: Protein: Cdk2, cysteine position S276C, in h^-1
T3 construct: poly-histidine; made in house; host or cells: E. coli
How it was run: as §1

[5] = molecular target: T4, Cdk2(S181C) (C177A) (Homo sapiens, UniProt P24941, C177A/S181C); assay: Kinetic thiol consumption assay with Cdk2 mutant S181C; assay type: binding; design: key to Rate enhancement, Cdk2 S181C: rate constant with Cdk2 ÷ rate constant with model thiol (fold); conditions: additional mutation C177A; for Rate constant with Cdk2 S181C: Protein: Cdk2, cysteine position S181C, in h^-1
T4 construct: poly-histidine; made in house; host or cells: E. coli
How it was run: as §1

[6] = molecular target: T5, Cdk2(T182C) (C177A) (Homo sapiens, UniProt P24941, C177A/T182C); assay: Kinetic thiol consumption assay with Cdk2 mutant T182C; assay type: binding; design: key to Rate enhancement, Cdk2 T182C: rate constant with Cdk2 ÷ rate constant with model thiol (fold); conditions: additional mutation C177A; for Rate constant with Cdk2 T182C: Protein: Cdk2, cysteine position T182C, in h^-1
T5 construct: poly-histidine; made in house; host or cells: E. coli
How it was run: as §1

[7] = molecular target: T6, Cdk2(N272C) (C177A) (Homo sapiens, UniProt P24941, C177A/N272C); assay: Kinetic thiol consumption assay with Cdk2 mutant N272C; assay type: binding; design: key to Rate enhancement, Cdk2 N272: rate constant with Cdk2 ÷ rate constant with model thiol (fold); conditions: for Rate enhancement, Cdk2 N272: Cdk2 N272, additional mutation C177A; for Rate constant with Cdk2 N272C: Protein: Cdk2, cysteine position N272C, additional mutation C177A, in h^-1
T6 construct: poly-histidine; made in house; host or cells: E. coli
How it was run: as §1

[8] = molecular target: T7, Cdk2[C177A, F80C, K278C] (Homo sapiens, UniProt P24941, C177A/F80C/K278C); assay: Kinetic thiol consumption assay with mutant Cdk2 as model thiol; assay type: binding; design: unit not given here; conditions: 500 μM ligand, 5 μM thiol, phosphate buffer pH 8
T7 construct: poly-histidine; made in house; host or cells: E. coli
How it was run: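 Model thiol: His-tagged human Cdk2 C177A/F80C/K278C (two engineered surface cysteines), E. coli-expressed, 5 μM in degassed phosphate buffer pH 8 with immobilized TCEP beads (2% v/v). Fluorescence (ex/em 380/470 nm) followed over time at room temperature, normalized to DMSO/thiol control. First-order decay fit gives rate constants.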

[9] = molecular target: T8, Cdk2(H71C) (C177A) (Homo sapiens, UniProt P24941, C177A/H71C); assay: Kinetic thiol consumption assay with Cdk2 mutant H71C; assay type: binding; design: key to Rate enhancement, Cdk2 H71C: rate constant with Cdk2 ÷ rate constant with model thiol (fold); conditions: additional mutation C177A; for Rate constant with Cdk2 H71C: Protein: Cdk2, cysteine position H71C, in h^-1
T8 construct: poly-histidine; made in house; host or cells: E. coli
How it was run: as §1

[10] = molecular target: T9, Cdk2(C177A, F80C) (Homo sapiens, UniProt P24941, C177A/F80C); assay: Kinetic thiol consumption assay with Cdk2 mutant F80C, incl. kobs versus concentration (Kd, k2); assay type: binding; design: key to Rate enhancement, Cdk2 F80C: Cdk2 rate constant divided by model-thiol rate constant; conditions: additional mutation C177A; for Rate constant with Cdk2 F80C: Protein: Cdk2, cysteine position F80C, in h^-1
T9 construct: poly-histidine; made in house; host or cells: E. coli
How it was run: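 His-tagged Cdk2(C177A/F80C) from E. coli or model thiol, 5 μM in degassed phosphate buffer pH 8 with TCEP beads, reacted with acrylamide ligands; fluorescence (ex/em 380/470 nm) normalized to DMSO control and fitted to first-order decay for kobs. Kd and k2 obtained from hyperbolic fit of kobs versus ligand concentration.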

Rate constant with Cdk2 (k(Cdk2)) [1] | Rate enhancement, Cdk2 WT [1] | Rate constant with Cdk2 WT [1] | k(Cdk2)/k(Cdk2_mut) rate enhancement [1] | Rate enhancement, Cdk2 R122C [2] | Rate constant with Cdk2 R122C [2] | Rate enhancement, Cdk2 S276C [4] | Rate constant with Cdk2 S276C [4] | Rate enhancement, Cdk2 S181C [5] | Rate constant with Cdk2 S181C [5] | Rate enhancement, Cdk2 T182C [6] | Rate constant with Cdk2 T182C [6] | Rate enhancement, Cdk2 N272 [7] | Rate constant with Cdk2 N272C [7] | Rate constant with Cdk2[C177A, F80C, K278C] (k(Cdk2_mut)) [8] | Rate enhancement, Cdk2 H71C [9] | Rate constant with Cdk2 H71C [9] | Rate enhancement, Cdk2 F80C [10] | Rate constant with Cdk2 F80C [10] | SMILES | Rate constant with Glutathione [3] | further results
0.01069 | 0.639 | 0.01069 | 0.277 | 0.2896 | 0.004845 | 0.2657 | 0.004445 | 0.7478 | 0.01251 | 0.5957 | 0.009966 | 0.2409 | 0.00403 | 0.03859 | 0.1317 | 0.002204 | 1.494 | 0.025 | C=CC(=O)Nc1ccccc1N1CCOCC1 [CA-030] | 0.01673 | k(Cdk2)/k(GSH) rate enhancement [1]: 0.6723; Rate constant with glutathione (k(GSH)) [3]: 0.0159
0.04682 | 1.125 | 0.04682 | 3.77 | 0.9491 | 0.03951 | 1.262 | 0.05252 | 0.4516 | 0.0188 | 2.327 | 0.09687 | 2.14 | 0.08909 | 0.01242 | 8.256 | 0.3437 | 0.4956 | 0.02063 | C=CC(=O)Nc1nc2ccccc2n1CCc1ccccn1 [CA-144] | 0.04163 | k(Cdk2)/k(GSH) rate enhancement [1]: 1.131; Rate constant with glutathione (k(GSH)) [3]: 0.0414

SMILES | Rate constant with Cdk2 (k(Cdk2)) [1] | Rate enhancement, Cdk2 WT [1] | Rate constant with Cdk2 WT [1] | k(Cdk2)/k(Cdk2_mut) rate enhancement [1] | Rate enhancement, Cdk2 R122C [2] | Rate constant with Cdk2 R122C [2] | Rate enhancement, Cdk2 S276C [4] | Rate constant with Cdk2 S276C [4] | Rate enhancement, Cdk2 S181C [5] | Rate constant with Cdk2 S181C [5] | Rate enhancement, Cdk2 T182C [6] | Rate constant with Cdk2 T182C [6] | Rate enhancement, Cdk2 N272 [7] | Rate constant with Cdk2 N272C [7] | Rate constant with Cdk2[C177A, F80C, K278C] (k(Cdk2_mut)) [8] | Rate enhancement, Cdk2 H71C [9] | Rate constant with Cdk2 H71C [9] | Rate enhancement, Cdk2 F80C [10] | Rate constant with Cdk2 F80C [10] | Rate constant with Glutathione [3] | further results
C=CC(=O)NCc1ccccc1 [CA-009] | 0.00446 | 2.404 | 0.01679 | 1.108 | 0.5794 | 0.004047 | 0.8186 | 0.005718 | 0.4707 | 0.003288 | 21.57 | 0.1507 | 1.318 | 0.009206 | 0.00402 | 0.2836 | 0.001981 | 0.5029 | 0.003513 | 0.006985 | –
